The NIST ThermoML archive (doi:10.1021/je034255e)

Experiments:
[1] = excess molar enthalpy (molar enthalpy of mixing); xn = mol fraction of the nth substance listed; conditions: 413.15 K, 1620 kPa, Liquid, Flow calorimetry
[2] = Liquid; for mass density: 101.33 kPa

CCC(N)=O [propanamide] + CCCCCCCCCCC
[1]
Conditions	excess molar enthalpy [kcal/mol]
x2 = 0.0092	0.0332
x2 = 0.0284	0.0576
x2 = 0.049	0.0607
x2 = 0.1074	0.0669
x2 = 0.7646	0.133
x2 = 0.9337	0.15
x2 = 0.9661	0.154

CCC(N)=O [propanamide]
[2]
Conditions	mass density [kg/m3]	vapor or sublimation pressure [kPa]
355.65 K	963.2	–
358.15 K	961.2	–
363.15 K	957.2	–
375.45 K	–	0.97
384.15 K	–	1.53
394.15 K	–	2.52
403.65 K	–	4.02
414.05 K	–	6.4
427.65 K	–	11.22
443.85 K	–	21.16
455.55 K	–	31.04
462.95 K	–	40.87
469.05 K	–	50.69
475.85 K	–	60.86
